GI50 and TGI data for eight compounds are collected here from PubChem BioAssay (NCI).

Where “and” joins values, the source holds several entries; their conditions need not be identical. Equal values may be shown once.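 Step 1: Grow cells in 96-well plates. Step 2: Expose to compound for 48 hours at 5 concentrations. Step 3: Interpolate endpoints linearly; if unreached, use highest concentration. GI50 marks 50% less growth. TGI: concentration producing complete growth inhibition.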

Test systems include CCRF-CEM leukemia; HOP-92 NSCLC; MALME-3M melanoma; NCI-H23 lung; OVCAR-4 ovarian; SN12C renal; SR leukemia; TK-10 renal; UACC-257 melanoma; UACC-62 melanoma.
Common to all, as to test: NCI tumour cell line growth inhibition, 48 h

Take `O=C(Nc1n[nH]c2cc(-c3ccc(F)cc3)ccc12)C1CC1`: the GI50 is 8.77 µM in the assay on CCRF-CEM leukemia; 23.3 µM with HOP-92 NSCLC; 9.79 µM with MALME-3M melanoma; 7.18 µM in the assay with NCI-H23 lung; 9.87 µM in the assay with OVCAR-4 ovarian; 10.8 µM in the assay with SN12C renal. The GI50 with SR leukemia is 2.76 µM; in the assay with TK-10 renal it was more than 20.8 µM; in the assay with UACC-257 melanoma, 14.1 µM; in the assay with UACC-62 melanoma, 12.6 µM. In addition, the TGI in the assay on CCRF-CEM leukemia, with HOP-92 NSCLC, in the assay with MALME-3M melanoma, in the assay with NCI-H23 lung, with OVCAR-4 ovarian and with SN12C renal was more than 25 µM each time. Further, the TGI with SR leukemia, with TK-10 renal, with UACC-257 melanoma and in the assay on UACC-62 melanoma was more than 25 µM in each case.

Regarding `CC1(/C=C/c2ccc(-c3ccccc3)cc2)CCn2cnc3ncnc(c32)N1O` (configuration not stated), the GI50 in the assay with CCRF-CEM leukemia was 0.153 µM; with HOP-92 NSCLC, 3.72 µM; in the assay with MALME-3M melanoma, 0.412 µM; in the assay with NCI-H23 lung, 0.635 µM; in the assay on OVCAR-4 ovarian, 0.298 µM; in the assay on SN12C renal, 0.508 µM. Further, the GI50 was 0.31 µM in the assay with SR leukemia, 0.492 µM in the assay with TK-10 renal, 0.445 µM in the assay with UACC-257 melanoma and 0.356 µM with UACC-62 melanoma. Moreover, the TGI was 41.5 µM with CCRF-CEM leukemia; 65.6 µM with HOP-92 NSCLC; 14.7 µM in the assay with MALME-3M melanoma; 27.3 µM in the assay on NCI-H23 lung; more than 50.2 µM with OVCAR-4 ovarian; 40.7 µM in the assay on SN12C renal. Further, the TGI in the assay on SR leukemia was more than 100 µM; with TK-10 renal, more than 100 µM; in the assay with UACC-257 melanoma, 25.3 µM; in the assay with UACC-62 melanoma it was 2.27 µM.

For the compound `Nc1cc2c3ccccc3ccc2c2ccccc12`, the GI50 is 8 µM in the assay with CCRF-CEM leukemia; more than 100 µM in the assay with HOP-92 NSCLC; more than 100 µM in the assay with MALME-3M melanoma; more than 100 µM with NCI-H23 lung; more than 22.5 µM in the assay with OVCAR-4 ovarian; more than 100 µM in the assay with SN12C renal. The GI50 in the assay on SR leukemia, in the assay with TK-10 renal, in the assay on UACC-257 melanoma and with UACC-62 melanoma was more than 100 µM in each case. Moreover, the TGI in the assay with CCRF-CEM leukemia, in the assay with HOP-92 NSCLC, with MALME-3M melanoma, in the assay with NCI-H23 lung, in the assay on OVCAR-4 ovarian and with SN12C renal was more than 100 µM in each case. In addition, the TGI in the assay with SR leukemia, in the assay with TK-10 renal, with UACC-257 melanoma and in the assay on UACC-62 melanoma was more than 100 µM each time.

Consider `Cc1cc(C(=O)NOCCO)c(Nc2ccc(I)cc2F)n(C)c1=O`, for which the GI50 was more than 100 µM in the assay on CCRF-CEM leukemia; 0.00585 µM and 0.0235 µM in the assay with HOP-92 NSCLC; less than 0.01 µM in the assay on MALME-3M melanoma; 0.0237 µM and 0.0131 µM with NCI-H23 lung; 12.3 µM in the assay on SN12C renal; > 10 µM and 29.5 µM with SR leukemia. Also, the GI50 was 0.00186 µM and < 0.01 µM in the assay with UACC-257 melanoma; 0.0015 µM and < 0.01 µM with UACC-62 melanoma. The TGI in the assay on CCRF-CEM leukemia is more than 100 µM; with HOP-92 NSCLC, 0.2 µM and 1.04 µM; in the assay with MALME-3M melanoma, 0.0115 µM and < 0.01 µM; in the assay on NCI-H23 lung it was more than 100 µM; with OVCAR-4 ovarian it was more than 100 µM; in the assay with SN12C renal, more than 100 µM. Also, the TGI in the assay with SR leukemia was more than 100 µM; in the assay with TK-10 renal it was more than 100 µM; in the assay with UACC-257 melanoma it was 0.0128 µM and < 0.0197 µM; in the assay on UACC-62 melanoma, 0.0116 µM and 0.0221 µM.

For the compound `OC(CBr)C(O)C(O)C(O)CBr` (configuration not stated), the TGI in the assay on CCRF-CEM leukemia, in the assay with HOP-92 NSCLC, with MALME-3M melanoma, with NCI-H23 lung, with OVCAR-4 ovarian and with SN12C renal was more than 100 µM each time. The TGI in the assay with SR leukemia was more than 100 µM; in the assay with TK-10 renal, more than 100 µM; in the assay on UACC-257 melanoma, more than 100 µM; in the assay with UACC-62 melanoma, > 75.4 µM and 65.1 µM. Further, the GI50 is 35.8 µM and > 86.8 µM in the assay with HOP-92 NSCLC; 12 µM and > 61.1 µM in the assay on NCI-H23 lung; 15.3 µM and 57.5 µM with SN12C renal; 19.9 µM and 9.75 µM in the assay on UACC-62 melanoma.

For the compound `COC1C[C@H](O[C@@H]2C[C@H](O[C@@H]3C[C@H](O[C@@H]4C(=O)c5c(cc6cc(O[C@H]7C[C@@H](O[C@H]8C[C@@H](O)[C@H](O)C(C)O8)[C@H](O)C(C)O7)c(C)c(O)c6c5O)C[C@H]4C(OC)C(=O)[C@@H](O)[C@@H](C)O)OC(C)[C@H]3O)OC(C)[C@@H]2O)OC(C)[C@@H]1O` (some centres not stated), the GI50 in the assay on CCRF-CEM leukemia was 0.127 µM; in the assay on HOP-92 NSCLC, 0.0551 µM; with MALME-3M melanoma it was 0.0861 µM; with NCI-H23 lung, 0.0899 µM; in the assay on OVCAR-4 ovarian it was 0.134 µM; with SN12C renal, 0.113 µM. The GI50 in the assay on SR leukemia was 0.0406 µM; with TK-10 renal, 0.173 µM; in the assay with UACC-257 melanoma, 0.0825 µM; in the assay on UACC-62 melanoma, 0.0434 µM. For the same compound, the TGI in the assay with CCRF-CEM leukemia was more than 32.5 µM; in the assay on HOP-92 NSCLC it was 0.25 µM; with MALME-3M melanoma it was 0.437 µM; in the assay with NCI-H23 lung, 0.695 µM; in the assay on OVCAR-4 ovarian it was 2.76 µM; with SN12C renal it was more than 32.5 µM. Also, the TGI in the assay with SR leukemia was more than 32.5 µM; in the assay with TK-10 renal it was 6.4 µM; in the assay on UACC-257 melanoma it was 0.262 µM; with UACC-62 melanoma it was 0.134 µM.

In the case of `C/C(COc1ccccc1)=N\NC(N)=S`, the TGI in the assay with CCRF-CEM leukemia, in the assay with HOP-92 NSCLC, in the assay with MALME-3M melanoma, in the assay on NCI-H23 lung, with OVCAR-4 ovarian and in the assay on SN12C renal was more than 100 µM throughout. Moreover, the TGI in the assay with SR leukemia, with TK-10 renal, in the assay with UACC-257 melanoma and in the assay with UACC-62 melanoma was more than 100 µM in each case.

As to `S=C1NC(c2ccccc2)NC(c2ccccc2)S1` (configuration not stated), the TGI is 8.38 µM with CCRF-CEM leukemia; more than 100 µM in the assay with HOP-92 NSCLC; more than 100 µM in the assay on MALME-3M melanoma; more than 100 µM in the assay on NCI-H23 lung; more than 100 µM in the assay with OVCAR-4 ovarian; more than 100 µM in the assay on SN12C renal. Moreover, the TGI with SR leukemia, in the assay on TK-10 renal, in the assay with UACC-257 melanoma and in the assay on UACC-62 melanoma was more than 100 µM in each case.
